# In patent US8124598B2 (priority 2006, dated 2012):
# Entries after “also recorded” stand apart in the source; their conditions may differ.
# Columns and labels:
# [1] = target: T1, [^3H]dexamethasone-activated glucocorticoid receptor (Homo sapiens, UniProt P04150); settings: brain cells; cited from earlier work
# T1 construct: glucocorticoid receptor in brain cells; host or cells: brain cells
# T1 sequence (P04150 1-777): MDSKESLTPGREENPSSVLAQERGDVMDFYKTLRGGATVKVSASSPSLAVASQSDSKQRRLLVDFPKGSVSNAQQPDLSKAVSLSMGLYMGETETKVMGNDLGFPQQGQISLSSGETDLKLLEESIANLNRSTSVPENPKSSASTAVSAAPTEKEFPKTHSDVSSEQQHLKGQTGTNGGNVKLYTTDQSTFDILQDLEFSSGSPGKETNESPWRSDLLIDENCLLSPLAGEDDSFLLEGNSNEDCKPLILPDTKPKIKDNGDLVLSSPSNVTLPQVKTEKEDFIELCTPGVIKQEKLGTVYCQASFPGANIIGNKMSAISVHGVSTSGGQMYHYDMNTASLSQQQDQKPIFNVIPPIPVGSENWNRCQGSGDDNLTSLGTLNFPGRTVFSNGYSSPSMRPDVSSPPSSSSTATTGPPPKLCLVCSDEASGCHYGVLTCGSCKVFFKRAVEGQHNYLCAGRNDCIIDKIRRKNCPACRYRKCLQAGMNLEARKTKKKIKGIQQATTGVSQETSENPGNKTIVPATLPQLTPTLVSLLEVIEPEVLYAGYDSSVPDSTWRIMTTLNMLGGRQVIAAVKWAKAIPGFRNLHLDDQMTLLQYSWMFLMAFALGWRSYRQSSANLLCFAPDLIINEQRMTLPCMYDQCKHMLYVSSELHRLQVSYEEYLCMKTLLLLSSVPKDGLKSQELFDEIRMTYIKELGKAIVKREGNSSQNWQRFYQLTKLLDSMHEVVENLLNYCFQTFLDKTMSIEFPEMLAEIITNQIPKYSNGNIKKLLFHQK
# [2] = tested on: midlife major and minor depression or dysthymia; settings: cited from earlier work
# [3] = tested on: treatment-resistant patients; experiment: Other treatments of the Example 3 patients (history); settings: for response to other treatment: Example 3 patients 2, 3, 5, 6, 7, before 7-keto DHEA
# Excerpt: Patient 2 A married person was anxious all their life, hypertensive, fragile, had 4 years of depression due to stress and received 12 years of psychoanalysis.
# [4] = tested on: women with severe chronic PTSD; experiment: Other medications of the Example 1 case patients (history); assay type: in vivo, human
# Experimental: Case 2. patient two, a person with chronic severe PTSD (DSM-IV) associated with a history of severe childhood physical and sexual abuse, had remained highly symptomatic despite undergoing one and a half years of individual and group CBT and receiving paroxetine up to 30 mg daily, from other practitioners, for more than 4 years. […] They wished to be tapered off paroxetine because they had gained 40 lb, and after becoming obese, they also became hypertensive. Ms. […] Although their paroxetine dosage was tapered to 5 mg every other day, and lamotrigine 100 mg and topiramate 75 mg were administered daily, they remained highly symptomatic.
# Case 4. patient one was in psychiatric treatment for over 25 years, including a long course of psychoanalysis and 2 years of CBT. They had been treated with adequate trials of 2 tricyclic antidepressants, 3 SSRIs, venlafaxine, 2 monoamine oxidase inhibitors, 3 anticonvulsants, many typical and atypical antipsychotics, lithium, bupropion, trazodone, and nefazodone.
# […] symptoms persisted in spite of psychotherapy for more than 15 years and numerous trials on medications.
# [5] = Case 4, lorazepam 1 mg p.r.n., aripiprazole 2.5 mg daily, pemoline 75 mg daily, phentermine 30 mg daily
smiles,measurement,setting,value
C[C@]12CC[C@H](O)CC1=C[C@@H](O)[C@@H]1[C@@H]2CC[C@]2(C)C(=O)CC[C@@H]12 [7 alpha-hydroxy DHEA],preventing the nuclear uptake of [^3H]dexamethasone-activated glucocorticoid receptor,[1],efficient
C[C@]12CC[C@H](O)CC1=C[C@H](O)[C@@H]1[C@@H]2CC[C@]2(C)C(=O)CC[C@@H]12 [7 beta-hydroxy DHEA],preventing the nuclear uptake of [^3H]dexamethasone-activated glucocorticoid receptor,[1],efficient
"C[C@]12CC[C@H](O)CC1=CC[C@@H]1[C@@H]2CC[C@]2(C)C(=O)CC[C@@H]12 [DHEA, Dehydroepiandrosterone]",induced mania,[2]; case reports,induced mania has been reported
same,effectiveness in depression,"[2]; one open series and 3 placebo-controlled, double-blind, randomized trials, midlife major and minor depression or dysthymia",supported the effectiveness
CN(C)CCC=C1c2ccccc2COc2ccccc21 [Doxepin],response to other treatment,[3],partially responded
same,tolerability of other treatment,"[3]; human, in vivo",intolerant of the side effects
COC(=O)C(c1ccccc1)C1CCCCN1 (centres unmarked) [Methylphenidate],adverse effect,[4]; Case 4,made their anxiety worse
NC1=NC(=O)C(c2ccccc2)O1 (centres unmarked) [Pemoline],benefit,[4]; [5],enough energy to function
CN1CCN2c3ncccc3Cc3ccccc3C2C1 (centres unmarked) [Remeron],response to other treatment,[3],partially helped
"C[S+](CC[C@H](N)C(=O)O)C[C@H]1O[C@@H](n2cnc3c(N)ncnc32)[C@H](O)[C@@H]1O (some centres unmarked) [SAMe, S-adenosylmethionine]",response to other treatment,[3],partially helped; also recorded: made the Doxepin work better
O=C1CCc2ccc(OCCCCN3CCN(c4cccc(Cl)c4Cl)CC3)cc2N1 [aripiprazole],benefit,[4]; [5],"some relief from anxiety, depression, and agitation"
same,weight gain,"[4]; human, in vivo",30 lb
same,response to other treatment,[3],partially responded
C[C@H](N)Cc1ccccc1 [dextroamphetamine],adverse effect,[4]; Case 4,made their anxiety worse
CNCCC(Oc1ccc(C(F)(F)F)cc1)c1ccccc1 (centres unmarked) [fluoxetine],adverse effect of failed trial,"[4]; human, in vivo",agitated and irritable
Nc1nnc(-c2cccc(Cl)c2Cl)c(N)n1 [lamotrigine],response to other treatment,[3],partially improved
O=C1Nc2ccc(Cl)cc2C(c2ccccc2Cl)=NC1O (centres unmarked) [lorazepam],benefit,[4]; [5],"some relief from anxiety, depression, and agitation"
Fc1ccc([C@@H]2CCNC[C@H]2COc2ccc3c(c2)OCO3)cc1 [paroxetine],benefit,"[4]; Case 2, patient's own judgement",not helping their chronic severe anxiety and irritability
CC(C)(N)Cc1ccccc1 [phentermine],benefit,[4]; [5],enough energy to function
CN[C@H]1CC[C@@H](c2ccc(Cl)c(Cl)c2)c2ccccc21 [sertraline],benefit,"[4]; Case 5, sertraline for 6 years",minimal benefit
same,adverse effect of failed trial,"[4]; human, in vivo",agitated and irritable
same,response to other treatment,[3],partially improved
COc1ccc(C(CN(C)C)C2(O)CCCCC2)cc1 (centres unmarked) [venlafaxine],benefit,"[4]; Case 5, sertraline for 6 years",slightly helpful
same,adverse effect,"[4]; Case 5, venlafaxine at 300 mg daily",overly activated
same,response to other treatment,[3],partially responded
same,tolerability of other treatment,[3]; Example 3 patients 6 and 7,did not like the side effects
